From patent US10899788B2, “Cyclic phosphate substituted nucleoside compounds and methods of use thereof for the treatment of viral diseases” (MERCK SHARP & DOHME CORP., priority 2016, dated 2021)

How the values were obtained:
[1] = test system: HCV replicon cells (1b-Con1); experiment: Replicon activity assay (cell-based anti-HCV activity); conditions: Hepatitis C virus, 72 h, three days post-dosing, replicon RNA level by real-time RT-PCR, read-out: EC50 (1b) Range
Method: (§1) To measure cell-based anti-HCV activity of the compounds of the present invention, replicon cells (1b-Con1) are seeded at 5000 cells/well in 96-well plates one day prior to treatment with a compound of the invention. Various concentrations of a test compound of the invention in DMSO are then added to the replicon cells, with the final concentration of DMSO at 0.5% and fetal bovine serum at 10% in the assay media. Cells are harvested three days post-dosing, and the replicon RNA level is determined using real-time RT-PCR (Taqman assay) with GAPDH RNA as endogenous control. EC50 values are calculated from experiments with 10 serial twofold dilutions of the inhibitor in triplicate. To measure cytotoxicity in replicon cells of an inhibitor, an MTS assay is performed according to the manufacturer's protocol for CellTiter 96 Aqueous One Solution Cell Proliferation Assay (Promega, Cat #G3580) three days post dosing on cells treated identically as in replicon activity assays. […] Cytotoxicity in other types of cells may be measured using the same MTS protocol.
(§2) Data were obtained using this method for selected compounds of the present invention, and are set forth below in Table 2.

[2] = Cytotoxicity assay in replicon cells (MTS); assay type: cell-based; conditions: HCV replicon cells (1b-Con1), three days post dosing, head prints EDU, method MTS, read-out: CC50 (EDU) Range
Method: as §1, §2

SMILES: CCOc1nc(N)nc2c1ncn2[C@@H]1O[C@@H]2CO[P@@](=O)(OCCCC(=O)OC(C)C)O[C@H]2[C@@]1(C)Cl [Compound 9B]
- EC50 [1]: ≤ 0.25 µM
- CC50 at 3 days [2]: > 50 µM

SMILES: C[C@@]1(Cl)[C@@H]2O[P@](=O)(OCCCCC(=O)OC3CCCC3)OC[C@H]2O[C@H]1n1ccc(=O)[nH]c1=O [Compound 19B]
- EC50 [1]: 0.25 to 1 µM
- CC50 at 3 days [2]: > 50 µM

SMILES: CC(C)OC(=O)CCCO[P@]1(=O)OC[C@H]2O[C@@H](n3ccc(=O)[nH]c3=O)[C@](C)(N)[C@@H]2O1 [Compound 12B]
- EC50 [1]: > 10 µM
- CC50 at 3 days [2]: > 50 µM

SMILES: C[C@@]1(N)[C@@H]2O[P@@](=O)(OCCCCC(=O)OC3CCCC3)OC[C@H]2O[C@H]1n1ccc(=O)[nH]c1=O [Compound 17A]
- EC50 [1]: > 10 µM
- CC50 at 3 days [2]: > 50 µM

SMILES: CCCCOC(=O)CCCO[P@]1(=O)OC[C@H]2O[C@@H](n3ccc(=O)[nH]c3=O)[C@](C)(N)[C@@H]2O1 [Compound 4B]
- EC50 [1]: 1 to 10 µM
- CC50 at 3 days [2]: > 50 µM

SMILES: CC(C)OC(=O)CCO[P@]1(=O)OC[C@H]2O[C@@H](n3ccc(=O)[nH]c3=O)[C@](C)(Cl)[C@@H]2O1 [Compound 27B]
- EC50 [1]: 1 to 10 µM

SMILES: CC(C)OC(=O)CCCO[P@@]1(=O)OC[C@H]2O[C@@H](n3ccc(=O)[nH]c3=O)[C@](C)(N)[C@@H]2O1 [Compound 12A]
- EC50 [1]: > 10 µM
- CC50 at 3 days [2]: > 50 µM

SMILES: CC(C)OC(=O)CCCCCO[P@@]1(=O)OC[C@H]2O[C@@H](n3ccc(=O)[nH]c3=O)[C@](C)(N)[C@@H]2O1 [Compound 25A]
- EC50 [1]: > 10 µM

SMILES: CC(C)OC(=O)CCCOP1(=O)OC[C@H]2O[C@@H](n3ccc(=O)[nH]c3=O)[C@](C)(C#N)[C@@H]2O1 (stereo partly shown) [Compound 1A]
- EC50 [1]: 1 to 10 µM
- CC50 at 3 days [2]: > 50 µM

SMILES: CC(C)OC(=O)CCO[P@@]1(=O)OC[C@H]2O[C@@H](n3ccc(=O)[nH]c3=O)[C@](C)(Cl)[C@@H]2O1 [Compound 27A]
- EC50 [1]: 1 to 10 µM

SMILES: CCOC(=O)CCCCOP1(=O)OC[C@H]2O[C@@H](n3ccc(=O)[nH]c3=O)[C@](C)(N)[C@@H]2O1 (stereo partly shown) [21A or 21B]
- EC50 [1]: > 10 µM
- CC50 at 3 days [2]: > 50 µM

SMILES: C#C[C@]1(C)[C@@H]2O[P@](=O)(OCCCCC(=O)OCC)OC[C@H]2O[C@H]1n1ccc(=O)[nH]c1=O [Compound 20B]
- EC50 [1]: > 10 µM
- CC50 at 3 days [2]: > 50 µM

SMILES: C#C[C@@]1(O)[C@@H]2O[P@@](=O)(OCCCC(=O)OC(C)C)OC[C@H]2O[C@H]1n1ccc(=O)[nH]c1=O [Compound 13A]
- EC50 [1]: > 10 µM
- CC50 at 3 days [2]: > 50 µM

SMILES: COC(=O)CCCCO[P@@]1(=O)OC[C@H]2O[C@@H](n3ccc(=O)[nH]c3=O)[C@](C)(Cl)[C@@H]2O1 [Compound 23A]
- EC50 [1]: 0.25 to 1 µM
- CC50 at 3 days [2]: > 50 µM

SMILES: CC(C)OC(=O)CCCCO[P@]1(=O)OC[C@H]2O[C@@H](n3ccc(=O)[nH]c3=O)[C@](C)(Cl)[C@@H]2O1 [Compound 18B]
- EC50 [1]: 1 to 10 µM
- CC50 at 3 days [2]: > 50 µM

SMILES: C[C@@]1(N)[C@@H]2O[P@](=O)(OCCCCC(=O)OC3CCCC3)OC[C@H]2O[C@H]1n1ccc(=O)[nH]c1=O [Compound 17B]
- EC50 [1]: 1 to 10 µM
- CC50 at 3 days [2]: > 50 µM

SMILES: CC(C)OC(=O)CCO[P@]1(=O)OC[C@H]2O[C@@H](n3ccc(=O)[nH]c3=O)[C@](C)(N)[C@@H]2O1 [Compound 28B]
- EC50 [1]: > 10 µM
- CC50 at 3 days [2]: > 50 µM

SMILES: C#C[C@]1(C)[C@@H]2O[P@@](=O)(OCCCCC(=O)OC3CCCC3)OC[C@H]2O[C@H]1n1ccc(=O)[nH]c1=O [Compound 16A]
- EC50 [1]: > 10 µM
- CC50 at 3 days [2]: > 50 µM

SMILES: CC(C)OC(=O)CCCCO[P@]1(=O)OC[C@H]2O[C@@H](n3ccc(=O)[nH]c3=O)[C@](C)(N)[C@@H]2O1 [Compound 14B]
- EC50 [1]: > 10 µM
- CC50 at 3 days [2]: > 50 µM

SMILES: C#C[C@]1(C)[C@@H]2O[P@](=O)(OCCC(=O)OC(C)C)OC[C@H]2O[C@H]1n1ccc(=O)[nH]c1=O [Compound 26B]
- EC50 [1]: > 10 µM
- CC50 at 3 days [2]: > 50 µM

SMILES: C#C[C@]1(C)[C@@H]2O[P@](=O)(OCCCC(=O)OC(C)C)OC[C@H]2O[C@H]1n1ccc(=O)[nH]c1=O [Compound 11B]
- EC50 [1]: 0.25 to 1 µM
- CC50 at 3 days [2]: > 50 µM

SMILES: C[C@@]1(Cl)[C@@H]2O[P@@](=O)(OCCCCC(=O)OC3CCCC3)OC[C@H]2O[C@H]1n1ccc(=O)[nH]c1=O [Compound 19A]
- EC50 [1]: 1 to 10 µM
- CC50 at 3 days [2]: > 50 µM

SMILES: C#C[C@]1(C)[C@@H]2O[P@@](=O)(OCCCCC(=O)OC(C)C)OC[C@H]2O[C@H]1n1ccc(=O)[nH]c1=O [Compound 15A]
- EC50 [1]: > 10 µM
- CC50 at 3 days [2]: > 50 µM

SMILES: C#C[C@]1(C)[C@@H]2O[P@@](=O)(OCCCCC(=O)OCC)OC[C@H]2O[C@H]1n1ccc(=O)[nH]c1=O [Compound 20A]
- EC50 [1]: > 10 µM
- CC50 at 3 days [2]: > 50 µM

SMILES: C#C[C@]1(C)[C@@H]2O[P@@](=O)(OCCC(=O)OC(C)C)OC[C@H]2O[C@H]1n1ccc(=O)[nH]c1=O [Compound 26A]
- EC50 [1]: > 10 µM
- CC50 at 3 days [2]: > 50 µM

SMILES: C#C[C@@]1(O)[C@@H]2O[P@](=O)(OCCCC(=O)OC(C)C)OC[C@H]2O[C@H]1n1ccc(=O)[nH]c1=O [Compound 13B]
- EC50 [1]: 1 to 10 µM
- CC50 at 3 days [2]: > 50 µM

SMILES: C#C[C@]1(C)[C@@H]2O[P@@](=O)(OCCCC(=O)OC(C)C)OC[C@H]2O[C@H]1n1ccc(=O)[nH]c1=O [Compound 11A]
- EC50 [1]: 1 to 10 µM
- CC50 at 3 days [2]: > 50 µM

SMILES: COC(=O)CCCCO[P@]1(=O)OC[C@H]2O[C@@H](n3ccc(=O)[nH]c3=O)[C@](C)(Cl)[C@@H]2O1 [Compound 23B]
- EC50 [1]: 1 to 10 µM
- CC50 at 3 days [2]: > 50 µM

SMILES: C#C[C@]1(C)[C@@H]2O[P@@](=O)(OCCCCC(=O)OC)OC[C@H]2O[C@H]1n1ccc(=O)[nH]c1=O [Compound 22A]
- EC50 [1]: > 10 µM
- CC50 at 3 days [2]: > 50 µM

SMILES: CC(C)OC(=O)CCCO[P@]1(=O)OC[C@H]2O[C@@H](n3ccc(=O)[nH]c3=O)[C@](C)(C#N)[C@@H]2O1 [Compound 1B]
- EC50 [1]: 0.25 to 1 µM
- CC50 at 3 days [2]: > 50 µM

SMILES: C#C[C@]1(C)[C@@H]2O[P@](=O)(OCCCCC(=O)OC(C)C)OC[C@H]2O[C@H]1n1ccc(=O)[nH]c1=O [Compound 15B]
- EC50 [1]: > 10 µM
- CC50 at 3 days [2]: > 50 µM

SMILES: CCOc1nc(N)nc2c1ncn2[C@@H]1O[C@@H]2CO[P@](=O)(OCCCC(=O)OC(C)C)O[C@H]2[C@@]1(C)Cl [Compound 9A]
- EC50 [1]: > 10 µM
- CC50 at 3 days [2]: > 50 µM

SMILES: CCOc1nc(N)nc2c1ncn2[C@@H]1O[C@@H]2CO[P@](=O)(OCCCC(=O)OC(C)C)O[C@H]2[C@@]1(C)N [Compound 3A]
- EC50 [1]: > 10 µM
- CC50 at 3 days [2]: > 50 µM

SMILES: C#C[C@]1(C)[C@@H]2O[P@](=O)(OCCCCC(=O)OC3CCCC3)OC[C@H]2O[C@H]1n1ccc(=O)[nH]c1=O [Compound 16B]
- EC50 [1]: 1 to 10 µM
- CC50 at 3 days [2]: > 50 µM

SMILES: CC(C)OC(=O)CCO[P@@]1(=O)OC[C@H]2O[C@@H](n3ccc(=O)[nH]c3=O)[C@](C)(N)[C@@H]2O1 [Compound 28A]
- EC50 [1]: > 10 µM
- CC50 at 3 days [2]: > 50 µM

SMILES: CC(C)OC(=O)CCCO[P@@]1(=O)OC[C@H]2O[C@@H](n3ccc(N)nc3=O)[C@](C)(Cl)[C@@H]2O1 [Compound 8A]
- EC50 [1]: 1 to 10 µM
- CC50 at 3 days [2]: > 50 µM

SMILES: CC(C)OC(=O)CCCO[P@]1(=O)OC[C@H]2O[C@@H](n3ccc(N)nc3=O)[C@](C)(Cl)[C@@H]2O1 [Compound 8B]
- EC50 [1]: 0.25 to 1 µM
- CC50 at 3 days [2]: > 50 µM

SMILES: CC(C)OC(=O)CCCCCO[P@]1(=O)OC[C@H]2O[C@@H](n3ccc(=O)[nH]c3=O)[C@](C)(N)[C@@H]2O1 [Compound 25B]
- EC50 [1]: > 10 µM

SMILES: C#C[C@]1(C)[C@@H]2OP(=O)(OCCCC(=O)OC3CCCC3)OC[C@H]2O[C@H]1n1ccc(=O)[nH]c1=O (stereo partly shown) [7A or 7B]
- EC50 [1]: ≤ 0.25 µM
